Results published in patent US9617222B1, “Alkynyl indazole derivative and use thereof” (SENJU PHARMACEUTICAL CO., LTD., priority 2014, dated 2017).
≈ marks a conversion by molar mass, not a printed value.

Legend:
[1] = system: Human Retinal Microvascular Endothelial (hRMVE) Cells (hRMVEC); assay: Growth inhibition of hRMVE cells under VEGF stimulation (MTT assay); assay type: cell-based; conditions: recombinant human VEGF, 48 hours, read-out: Cell Growth Inhibition Activity
[2] = Solubility test in 0.1% phosphate buffer solution (pH 7.0); assay type: physicochemical; conditions: for solubility: aqueous buffer, thermodynamic from solid, 0.1% phosphate buffer solution (pH 7.0), room temperature overnight
Procedure: The mixture was subjected to ultrasonic irradiation for 30 seconds, and then shaken at room temperature overnight. The resulting suspension was left at rest at room temperature for 30 minutes, then filtered through a chromatography disc (0.20 μm) to prepare a sample solution. The sample solution and the standard solution were analyzed by LC-MS (product name: ACQUITY UPLC H-CLASS SYSTEM and Xevo TQ-S, produced by Nihon Waters K.K.), and a solubility was calculated from the obtained peak area value by an external standard method.

[3] = Drug penetrating test to retina/choroid after instillation; assay type: in vivo, rabbit (Japanese white rabbit); conditions: rabbit, 2 hours after instillation; for concentration at 2 h: Japanese white, retina/choroid, topical, 50 μL/eye of 0.25% suspension, 0.25% suspension eye drop 50 μL/eye, average ± standard deviation; for drug penetrating concentration in the retina/choroid compared with compound B: p≦0.05
Procedure: For the compounds 8, 27 and B produced in Examples, drug penetrating concentrations to retina/choroid tissues after instillation were measured. […] In order to measure the drug concentration in the retina/choroid tissues, the eye drop was administered to rabbits (Japanese white rabbit) at 50 μL/eye, the rabbits were euthanized 2 hours after instillation, and the eyeballs were excised. The excised eyeballs were frozen with liquid nitrogen, split into two parts along the equatorial plane, and then the retina/choroid tissues were sampled from the posterior eye segment. In order to extract the compound from the sampled tissues, the tissues were finely cut in methanol to prepare a lysate, and subsequently the lysate was centrifuged to collect the supernatant. To the extracted solution of the compound from the supernatant, an equivalent amount of ultrapure water was added, and the solution was filtered through a membrane filter (0.22 μm), and the filtrate was designated as a final measurement solution. The drug concentration in the filtrate was analyzed by liquid chromatography mass spectrometry (LC/MS/MS), and the compound concentration in the retina/choroid tissues was calculated from the peak area value obtained by an external standard method. Analysis conditions of LC/MS/MS are as below. For the compound concentration in the retina/choroid, null hypothesis test was carried out using JMP (registered trademark) (SAS Institute Inc.), the outlier was excluded, and then the average value±standard deviation was used.

Structure (SMILES)	IC50 [1]	solubility [2]	other results
CNC(=O)c1ccccc1Sc1ccc2c(C#Cc3cccc(NC(=O)NCCOCCOCCOC)c3)n[nH]c2c1 [Compound 3, 2-[(3-{[3-(3-{2-[2-(2-methoxyethoxy)ethoxy]ethyl}ureido)phenyl]ethynyl}-1H-indazol-6-yl)thio]-N-methylbenzamide]	11 nM	–	–
CNC(=O)c1ccccc1Sc1ccc2c(C#Cc3ccc(NC(=O)NCCOCCOCCOC)cc3)n[nH]c2c1 [Compound 8, 2-[(3-{[4-(3-{2-[2-(2-methoxyethoxy)ethoxy]ethyl}ureido)phenyl]ethynyl}-1H-indazol-6-yl)thio]-N-methylbenzamide]	1.2 nM	1 µg/mL (≈ 1.7 µM)	concentration at 2 h [3]: 2.6 ± 1.04 ng/g; drug penetrating concentration in the retina/choroid compared with compound B [3]: significantly higher
CNC(=O)c1ccccc1Sc1ccc2c(C#Cc3cccc(NC(=O)OCCOCCOCCOC)c3)n[nH]c2c1 [Compound 13, 2-[2-(2-methoxyethoxy)ethoxy]ethyl {3-[(6-{[2-(methylcarbamoyl)phenyl]thio}-1H-indazol-3-yl)ethynyl]phenyl}carbamate]	9.3 nM	–	–
CNC(=O)c1ccccc1Sc1ccc2c(C#Cc3ccc(NC(=O)OCCOCCOCCOC)cc3)n[nH]c2c1 [Compound 16, 2-[2-(2-methoxyethoxy)ethoxy]ethyl {4-[(6-{[2-(methylcarbamoyl)phenyl]thio}-1H-indazol-3-yl)ethynyl]phenyl}carbamate]	1.2 nM	0.27 µg/mL (≈ 0.459 µM)	–
CNC(=O)c1ccccc1Sc1ccc2c(C#Cc3ccc(NC(=O)COCCOCCOCCOC)cc3)n[nH]c2c1 [Compound 20, N-{4-[(6-{[2-(methylcarbamoyl)phenyl]thio}-1H-indazol-3-yl)ethynyl]phenyl}-2,5,8,11-tetraoxatridecane-13-amide]	1.7 nM	–	–
CNC(=O)c1ccccc1Sc1ccc2c(C#Cc3cccc(NCCOCCOCCOC)c3)n[nH]c2c1 [Compound 25, 2-[(3-{[3-({2-[2-(2-methoxyethoxy)ethoxy]ethyl}amino)phenyl]ethynyl}-1H-indazol-6-yl)thio]-N-methylbenzamide]	10 nM	–	–
CNC(=O)c1ccccc1Sc1ccc2c(C#Cc3ccc(NCCOCCOCCOC)cc3)n[nH]c2c1 [Compound 27, 2-[(3-{[4-({2-[2-(2-methoxyethoxy)ethoxy]ethyl}amino)phenyl]ethynyl}-1H-indazol-6-yl)thio]-N-methylbenzamide]	1.2 nM	0.48 µg/mL (≈ 0.881 µM)	concentration at 2 h [3]: 1.62 ± 0.68 ng/g; drug penetrating concentration in the retina/choroid compared with compound B [3]: significantly higher
CNC(=O)c1ccccc1Sc1ccc2c(C#Cc3ccc(NC(=O)NCCOCCOCCOC)nc3)n[nH]c2c1 [Compound 32, 2-[(3-{[6-(3-{2-[2-(2-methoxyethoxy)ethoxy]ethyl}ureido)pyridine-3-yl]ethynyl}-1H-indazol-6-yl)thio]-N-methylbenzamide]	3.8 nM	–	–
CNC(=O)c1ccccc1Sc1ccc2c(C#Cc3ccc(NC(=O)NCCOCCOCCOC)cn3)n[nH]c2c1 [Compound 35, 2-[(3-{[5-(3-{2-[2-(2-methoxyethoxy)ethoxy]ethyl}ureido)pyridine-2-yl]ethynyl}-1H-indazol-6-yl)thio]-N-methylbenzamide]	3.2 nM	4.4 µg/mL (≈ 7.47 µM)	–
CNC(=O)c1ccccc1Sc1ccc2c(C#Cc3ccc(NC(=O)NCCOCCOCCOCCOCCOC)cn3)n[nH]c2c1 [Compound 37, 2-{[3-({5-[3-(2,5,8,11,14-pentaoxahexadecane-16-yl)ureido]pyridine-2-yl}ethynyl)-1H-indazol-6-yl]thio}-N-methylbenzamide]	–	29 µg/mL (≈ 42.8 µM)	–
CNC(=O)c1ccccc1Sc1ccc2c(C#Cc3ccc(NC(=O)COCCOCCOCCOC)nc3)n[nH]c2c1 [Compound 38, N-{5-[(6-{[2-(methylcarbamoyl)phenyl]thio}-1H-indazol-3-yl)ethynyl]pyridine-2-yl}-2,5,8,11-tetraoxatridecane-13-amide]	3.5 nM	–	–
CNC(=O)c1ccccc1Sc1ccc2c(C#Cc3ccc(NC(=O)COCCOCCOCCOC)cn3)n[nH]c2c1 [Compound 41]	–	0.52 µg/mL (≈ 0.861 µM)	–
CNC(=O)c1ccccc1Sc1ccc2c(C#Cc3ccc(NC(=O)NCCOCCOCCO)cc3)n[nH]c2c1 [Compound 42, 2-[(3-{[4-(3-{2-[2-(2-hydroxyethoxy)ethoxy]ethyl}ureido)phenyl]ethynyl}-1H-indazol-6-yl)thio]-N-methylbenzamide]	1.6 nM	3.1 µg/mL (≈ 5.4 µM)	–
CNC(=O)c1ccccc1Sc1ccc2c(C#Cc3ccc(NC(=O)NCCOCCOCCN)cc3)n[nH]c2c1 [Compound 43, 2-[(3-{[4-(3-{2-[2-(2-aminoethoxy)ethoxy]ethyl}ureido)phenyl]ethynyl}-1H-indazol-6-yl)thio]-N-methylbenzamide]	4 nM	32 µg/mL (≈ 55.9 µM)	–
CNC(=O)c1ccccc1Sc1ccc2c(C#Cc3ccc(NC(=O)NCCOCCOCCN(C)C)cc3)n[nH]c2c1 [Compound 44, 2-{[3-({4-[3-(2-{2-[2-(dimethylamino)ethoxy]ethoxy}ethyl)ureido]phenyl}ethynyl)-1H-indazol-6-yl]thio}-N-methylbenzamide]	3 nM	7.6 µg/mL (≈ 12.7 µM)	–
CNC(=O)c1ccccc1Sc1ccc2c(C#Cc3ccc(NC(=O)NCCOCCOCCNC(C)=O)cc3)n[nH]c2c1 [Compound 45, 2-[(3-{[4-(3-{2-[2-(2-acetamideethoxy)ethoxy]ethyl}ureido)phenyl]ethynyl}-1H-indazol-6-yl)thio]-N-methylbenzamide]	2.5 nM	0.56 µg/mL (≈ 0.911 µM)	–
CNC(=O)c1ccccc1Sc1ccc2c(C#Cc3ccc(NC(=O)NCCOCCOCCN4CCOCC4)cc3)n[nH]c2c1 [Compound 46, N-methyl-2-[(3-{[4-(3-{2-[2-(2-morpholinoethoxy)ethoxy]ethyl}ureido)phenyl]ethynyl}-1H-indazol-6-yl)thio]benzamide]	3.2 nM	1.4 µg/mL (≈ 2.18 µM)	–
CNC(=O)c1ccccc1Sc1ccc2c(/C=C/c3ccccn3)n[nH]c2c1 [Compound A, 6-[2-(methylcarbamoyl)phenylsulfanyl]-3-E-[2-(pyridine-2-yl)ethenyl]indazole, reference compound]	–	0.045 µg/mL (≈ 0.116 µM)	photostability in solution (in words): poor photostability; solubility in aqueous solution (in words) ([2]; aqueous solution): low
CNC(=O)c1ccccc1Sc1ccc2c(C#Cc3ccccn3)n[nH]c2c1 [Compound B, 6-[2-(methylcarbamoyl)phenylsulfanyl]-3-[2-(pyridine-2-yl)ethynyl]indazole, reference compound]	1.6 nM	0.084 µg/mL (≈ 0.218 µM)	concentration at 2 h [3]: 0.51 ± 0.1 ng/g
